Data: patent EP0922458A1, “Potentiation of temozolomide by an ATase inhibitor” (CANCER RESEARCH CAMPAIGN TECHNOLOGY LIMITED, priority 1993, dated 1994)
Read-outs that look alike come from different tables or passages of the source.

Assays:
[1] = Stability in tissue culture medium (HPLC analysis); type: physicochemical; details: 37°C
[2] = molecular target: T1, O^6-alkylguanine DNA alkyltransferase (ATase) (Homo sapiens, UniProt P16455); assay: O^6-alkylguanine DNA alkyltransferase assay of treated cells; type: cell-based; details: for ATase content after BG: concentrations of BG used; for IC50: three-hour incubation, read-out: concentration causing 50% reduction in ATase content
T1 construct: endogenous in cells; host or cells: human tumour cell lines U373, MCF-7, LOVO, MAWI (extracts of treated cells)
T1 sequence (P16455 1-207): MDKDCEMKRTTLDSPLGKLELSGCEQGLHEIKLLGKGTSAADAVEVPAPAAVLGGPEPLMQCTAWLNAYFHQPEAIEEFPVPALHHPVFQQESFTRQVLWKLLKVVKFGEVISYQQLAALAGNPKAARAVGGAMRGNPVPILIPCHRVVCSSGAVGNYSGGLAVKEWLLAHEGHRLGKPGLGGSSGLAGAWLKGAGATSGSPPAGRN
Description: This assay was carried out as described by Lee et al., Cancer Res., 51:619 (1991). Thus, varying amounts of cell extracts are incubated with DNA which contains O^6-methylguanine labelled with [^3H] in the methyl group, at preferably 37°C for 2 hours in a total volume of 300 µl of 1 mg/ml of bovine serum albumin in buffer 1. After incubation, bovine serum albumin (100µl of a 10 mg/ml solution in buffer 1) and perchloric acid (100µl of a 4 M solution) are added in rapid succession. A further 2 ml of 1M perchloric is added and the mixture heated at 75°C for 40 minutes to degrade the DNA to acid soluble material. The protein, which contains the methylated ATase, is then collected by centrifugation, washed with 4ml of 1M perchloric acid before being resuspended in 300 µl of 0.01M sodium hydroxide and dissolved in 3ml of aqueous scintillation fluid (Ecoscint A: National Diagnostics), and counted. The protein content of the cells was determined with a BioRad protein assay kit using bovine serum albumin as a standard. ATase activity is expressed as fmol methyl transferred to protein per mg of total protein in the extract.

[3] = system: MCF-7; assay: Single dose cytotoxicity (sulphorhodamine protein assay); type: cell-based, human; details: for IC50: Homo sapiens, MCF7, MCF-7 (breast), 1 hour drug; for Ratio IC50 [-BG]/IC50 [+BG]: MCF-7
Description: (§1) Cell lines were routinely grown as monolayers in DMEM supplemented with 10% foetal calf serum, 25mM HEPES, glutamine and penicillin/streptomycin. Cytotoxicity studies were carried out in HEPES-free medium in a 5% CO2 atmosphere. 750-1000 cells/well were plated in 96 well plates and, after overnight incubation, were treated for 2 hours with or without 33 µM BG. Temozolomide or CCNU was then added for 1 hour in the same medium, the final DMSO concentration not exceeding 1%. […] For the repeat temozolomide dozing schedule, cells were given consecutive 24 hour treatments, with fresh medium each day. Assays were carried out at least in duplicate.

[4] = system: U373; assay: as above; type: cell-based, human; details: for IC50: Homo sapiens, U373 MG, U373 (astrocytoma), 1 hour drug; for Ratio IC50 [-BG]/IC50 [+BG]: U373
Description: as §1

[5] = system: LOVO; assay: as above; type: cell-based, human; details: for IC50: Homo sapiens, LOVO (colo-rectal), 1 hour drug; for Ratio IC50 [-BG]/IC50 [+BG]: LOVO
Description: as §1

[6] = system: LS174T; assay: as above; type: cell-based, human; details: for IC50: Homo sapiens, LS174T (colo-rectal), 1 hour drug; for Ratio IC50 [-BG]/IC50 [+BG]: LS174T
Description: as §1

[7] = system: U87MG; assay: as above; type: cell-based, human; details: for IC50: Homo sapiens, U-87 MG, U87MG (astrocytoma), 1 hour drug; for Ratio IC50 [-BG]/IC50 [+BG]: U87MG
Description: as §1

[8] = system: MAWI; assay: as above; type: cell-based, human; details: for IC50: Homo sapiens, MAWI (colo-rectal), 1 hour drug; for Ratio IC50 [-BG]/IC50 [+BG]: MAWI
Description: as §1

[9] = system: ZR-75-1; assay: as above; type: cell-based, human; details: for IC50: Homo sapiens, ZR-75-1 (breast), 1 hour drug; for Ratio IC50 [-BG]/IC50 [+BG]: ZR-75-1
Description: as §1

[10] = system: human tumour cell lines; assay: Single dose cytotoxicity, summary over the tumour cell lines; type: cell-based
Description: as §1

[11] = system: SF767 cells; details: WO 91/13898; cited from earlier work
[12] = system: human ATase cDNA-transfected XP cells (phAT); assay: Cytotoxicity in XP lines (MTT assay); type: cell-based; details: 120 h, XP line with ATase 1240 fmol/mg protein (phAT; printed on an unlabelled line), 5 days, without BG
Description: (§2) Human ATase cDNA-transfected or control XP cells [Fan et al., Nucleic Acid. Res., 18:5723 (1990)] were grown in MEM and 1000 cells/well were plated. After a 3 hour incubation, temozolomide, freshly diluted into MEM, was added and the plates incubated for 5 days. Survivals were assayed as described by Morten et al., Carcinogenesis, 13:483 (1992). In the BG experiments, 300 cells were plated in triplicate onto 9cm plates and allowed to attach for 5 hours. BG was added (10 µM in MEM) 3 hours prior to the treatment with temozolomide which was freshly diluted into MEM containing 10 µM BG. After 7 days, colonies were strained with Giemsa and counted.

[13] = system: control XP cells (pZip); assay: Cytotoxicity in XP lines (MTT assay); type: cell-based; details: for IC50: 120 h, XP line with ATase < 2 fmol/mg protein (control pZip; printed on the line 'phAT'), MTT assay, 5 days, without BG; for sensitivity of control XP cells relative to human ATase cDNA-transfected cells: pZip versus phAT XP cells, Table I
Description: as §2

[14] = system: MCF-7; assay: Repeated dose temozolomide cytotoxicity; type: cell-based; details: Homo sapiens
Description: as §1

[15] = system: MAWI; assay: Repeated dose temozolomide cytotoxicity; type: cell-based; details: Homo sapiens
Description: as §1

[16] = system: MAWI; assay: Cellular uptake of [^14C]-labelled temozolomide; type: in vitro ADME, human; details: 4°C, 200 µM labelled drug
Description: (§3) 8-carbamoyl-3-[^14C]methylimidazo[5,1-d]-1,2,3,5-tetrazin-4-(3H)-one (specific activity 26.3mCi/mmole) was kindly supplied by Dr. John Slack (Aston Molecules Ltd, Birmingham, UK). Cell suspensions (5 x 10^6/ml) were equilibrated at 4°C and treated with 200 µM of the labelled drug. 10^6 cells were pipetted into eppendorf tubes and centrifuged through 250µl of an oil mixture (4:1 "Three-in-One"/Dow Corning silicone oil). The aqueous layer was aspirated and the oil layer gently washed with a further 300 µl of saline. After centrifugation both layers were aspirated, the cell pellet dissolved in a tissue solubilizer such as Protosol® (quaternary ammonium hydroxide in toluene) and added to scintillation vials containing Optiphase® (95-99% diisopropylnaphthalene).

[17] = system: ZR-75-1; assay: Cellular uptake of [^14C]-labelled temozolomide; type: in vitro ADME, human; details: 4°C, 200 µM labelled drug
Description: as §3

[18] = system: U373; assay: Repeated dose temozolomide cytotoxicity; type: cell-based, human; details: for IC50: Homo sapiens, U373 MG, U373, DAY 4 of repeated daily 24 hour doses
Description: as §1

[19] = system: control XP cells; assay: Colony forming assay with BG pretreatment; type: cell-based; details: 10 µM BG 3 hours before, colonies after 7 days
Description: as §2

In the case of `Nc1nc(OCc2ccccc2)c2[nH]cnc2n1` [BG, O^6-benzylguanine], the “stable in tissue culture medium” value [1] is reported as “at least 24 hours”, the “ATase content after BG” value ([2]; MAWI cells) is reported as “undetectable level” and the “ATase content after BG” value ([2]; human ATase cDNA transfected XP fibroblasts) is reported as “undetectable level”.
With `O=NN(CCCl)C(=O)NC1CCCCC1` [CCNU, lomustine] the IC50 ([3]; 2 hours 33 µM BG before) was 31 µM, the IC50 ([3]; without BG) was 70 µM and the “Ratio IC50 [-BG]/IC50 [+BG]” value [3] was 2.2. For the same compound, the IC50 ([4]; 2 hours 33 µM BG before) was 12 µM, the IC50 ([4]; without BG) was 15 µM and the “Ratio IC50 [-BG]/IC50 [+BG]” value [4] was 1.2. For the same compound, the IC50 ([5]; 2 hours 33 µM BG before) was 32 µM, the IC50 ([5]; without BG) was 92 µM and the “Ratio IC50 [-BG]/IC50 [+BG]” value [5] was 2.9. The IC50 ([6]; 2 hours 33 µM BG before) was 13 µM, the IC50 ([6]; without BG) was 73 µM and the “Ratio IC50 [-BG]/IC50 [+BG]” value [6] was 5.7. The IC50 ([7]; 2 hours 33 µM BG before) was 8.8 µM, the IC50 ([7]; without BG) was 28 µM and the “Ratio IC50 [-BG]/IC50 [+BG]” value [7] was 3.2. The IC50 ([8]; 2 hours 33 µM BG before) was 30 µM, the IC50 ([8]; without BG) was 133 µM and the “Ratio IC50 [-BG]/IC50 [+BG]” value [8] was 4.4. The IC50 ([9]; 2 hours 33 µM BG before) was 25 µM, the IC50 ([9]; without BG) was 12 µM and the “Ratio IC50 [-BG]/IC50 [+BG]” value [9] was 0.5. The “increase in toxicity (sensitivity) after pretreatment with a single non-toxic dose of BG” value ([10]; single dose, over the tumour cell lines) was no more than 6 fold and the “toxicity on a molar basis relative to temozolomide” value ([10]; slopes of IC50 versus ATase content, Figure 1) was “approximately five”.
In the case of `CC1CCC(NC(=O)N(CCCl)N=O)CC1` (stereo not drawn) [Me CCNU], the “decrease in the ED50 when combined with O^6-benzylguanine” value [11] is listed as 3.8 fold.
With `NC(=O)c1ncn2c(=O)n(CCCl)nnc12` [mitozolomide, 8-carbamoyl-3-(2-chloroethyl)imidazo[5,1-d]-1,2,3,5-tetrazin-4-(3H)-one] the IC50 [12] was 4.2 µM, the IC50 [13] was 0.8 µM and the “sensitivity of control XP cells relative to human ATase cDNA-transfected cells” value [13] was 4-5 fold.
In the case of `Cn1nnc2c(C(N)=O)ncn2c1=O` [temozolomide, 8-carbamoyl-3-methylimidazo[5,1-d]-1,2,3,5,-tetrazin-4-(3H)-one], the IC50 ([3]; 2 hours 33 µM BG before) is reported as 171 µM, the IC50 ([3]; without BG) is reported as 325 µM and the “Ratio IC50 [-BG]/IC50 [+BG]” value [3] is reported as 1.9. The IC50 ([4]; 2 hours 33 µM BG before) was 78 µM, the IC50 ([4]; without BG) was 131 µM and the “Ratio IC50 [-BG]/IC50 [+BG]” value [4] was 1.7. The IC50 ([5]; 2 hours 33 µM BG before) was 323 µM, the IC50 ([5]; without BG) was 848 µM and the “Ratio IC50 [-BG]/IC50 [+BG]” value [5] was 2.6. The IC50 ([6]; 2 hours 33 µM BG before) was 632 µM, the IC50 ([6]; without BG) was 873 µM and the “Ratio IC50 [-BG]/IC50 [+BG]” value [6] was 1.4. For the same compound, the IC50 ([7]; 2 hours 33 µM BG before) was 131 µM, the IC50 ([7]; without BG) was 172 µM and the “Ratio IC50 [-BG]/IC50 [+BG]” value [7] was 1.3. For the same compound, the IC50 ([8]; 2 hours 33 µM BG before) was 335 µM, the IC50 ([8]; without BG) was 1170 µM and the “Ratio IC50 [-BG]/IC50 [+BG]” value [8] was 3.5. For the same compound, the IC50 ([9]; 2 hours 33 µM BG before) was 23 µM, the IC50 ([9]; without BG) was 32 µM and the “Ratio IC50 [-BG]/IC50 [+BG]” value [9] was 1.4. For the same compound, the IC50 ([14]; MCF7, 24 h, DAY 1, with BG) was 89 µM, the IC50 ([14]; MCF7, 24 h, DAY 1, without BG) was 319 µM and the IC50 ([14]; MCF7, 48 h, DAY 2, with BG) was 51 µM. The IC50 ([14]; MCF7, 48 h, DAY 2, without BG) was 319 µM, the IC50 ([14]; MCF7, 72 h, DAY 3, with BG) was 11 µM and the IC50 ([14]; MCF7, 72 h, DAY 3, without BG) was 375 µM. The IC50 ([15]; 24 h, DAY 1, with BG) was 196 µM, the IC50 ([15]; 24 h, DAY 1, without BG) was 319 µM and the IC50 ([15]; 48 h, DAY 2, with BG) was 59 µM. It also gave an IC50 ([15]; 48 h, DAY 2, without BG) of 350 µM, an IC50 ([15]; 72 h, DAY 3, with BG) of 21 µM and an IC50 ([15]; 72 h, DAY 3, without BG) of 383 µM. For the same compound, the IC50 ([15]; 96 h, DAY 4, with BG) was 7.2 µM, the IC50 ([15]; 96 h, DAY 4, without BG) was 383 µM and the IC50 ([15]; 120 h, DAY 5, with BG) was 1 µM. The IC50 ([15]; 120 h, DAY 5, without BG) was 326 µM, the “time to complete uptake” value [16] was no more than 5 min and the “time to complete uptake” value [17] was no more than 5 min. The IC50 [12] was 100 µM, the IC50 [13] was 23 µM and the “sensitivity of control XP cells relative to human ATase cDNA-transfected cells” value [13] was 4-5 fold. For the same compound, the IC50 ([18]; with BG) was 18 µM, the IC50 ([18]; without BG) was 51 µM and the “potentiation of temozolomide toxicity by BG” value ([18]; U373 cells, four 24 hour doses, BG present) was 3 fold. For the same compound, the “difference in the single dose cytotoxicity between MCF-7 and the colorectal lines (LOVO and MAWI)” value ([10]; single dose) was 3-4 fold, the IC50 ([2]; LOVO) was 50 to 100 µM and the IC50 ([2]; MAWI) was 50 to 100 µM. The IC50 ([2]; MCF-7) was 50 to 100 µM, the IC50 ([2]; U373) was 50 to 100 µM and the “effect of BG pretreatment on cytotoxicity of temozolomide” value [19] was “no measurable effect”.
